Measured values as given in patent US6908942B2, “6-amino-2,2-dimethyl-3,4,6-trisubstituted benzopyran derivatives and their construction by parallel synthesis on solid-phase” (Korea Research Institute of Chemical Technology, priority 2002, dated 2005).

These compounds were tested on lipid peroxidation induced by iron (assay: Inhibitory effect on iron-induced lipid peroxidation in rat brain homogenate (MDA measurement, N-methyl-2-phenylindole, Bioxytech LPO-586 Kit)). Settings: FeCl2 400 μM, 30 min at 37° C., decrease of MDA vs DMSO control, absorption at 586 nm.
Format: biochemical
Description: The inhibitory effect of the present compounds on lipid peroxidation induced by iron was evaluated as follows:
Rat brain was homogenized in Krebs buffer (15 mM HEPES, 10 mM glucose, 140 mM NaCl, 3.6 mM KCl, 1.5 mM CaCl2, 1.4 mM KH2PO4 and 0.7 mM MgCl, pH 7.4) and centrifuged at 12,000 rpm to obtain the supernatant serving as a raw material of lipid. To the brain homogenates, FeCl^2 was added to give a final concentration of 400 μM and allowed to stand for 30 min at 37° C. for promoting oxidation. Each of the compounds to be tested was added to give a concentration of 12.5 μM and a control group was solely added with dimethylsulfoxide (DMSO).
When iron is added to brain homogenates, oxidation is promoted to increase the amount of malondialdehyde (MDA) as lipid peroxidation product. Therefore, in this Example, the level of lipid peroxidation was evaluated according to MDA measurement method. In general MDA measurement, the test sample is reacted with TBA (2-thiobarbituric acid) and the absorbance at 530 nm was measured. However, since such process includes a boiling step, it is unsuitable for dealing with test samples in large quantity. Therefore, in this Example, N-methyl-2-phenylindole was used as a color developing reagent in place of TBA so as to avoid boiling step. […] The inhibitory effect on lipid peroxidation of test compounds was evaluated by calculating the decreased level of MDA in percentage based on the amount of MDA in the control group. For the test compounds showing more than 80% inhibitory effect, the concentration-lipid peroxidation inhibition curves were plotted with reference to the decrease rate of MDA amount based on the amount of MDA in the control group and their IC50 values was calculated through least linear regression analysis.
In addition, the representative antioxidants commercialized such as Promethazine, Trolox, Probucol and N-propyl gallate were examined in terms of 50% inhibition concentration (IC50) according to the above procedure and the results are shown in Table 4.

SMILES | IC50 [µM]
Cc1ccc(COC2C(OCc3ccccc3)c3cc(NCc4ccccc4)ccc3OC2(C)C)cc1 (centres unmarked) [Compound 5-296] | 5.85
CC1(C)Oc2ccc(NCc3ccccc3)cc2C(OCc2ccccc2)C1OCc1ccc2ccccc2c1 (centres unmarked) [Compound 5-298] | 6.07
COC1C(OCc2ccccc2)c2cc(NCc3ccccc3)ccc2OC1(C)C (centres unmarked) [Compound 5-300] | 1.36
CC1(C)Oc2ccc(NCc3ccccc3)cc2C(OCCc2ccccc2)C1OCc1ccc(F)cc1 (centres unmarked) [Compound 5-306] | 4.12
CC(C)(C)c1ccc(COC2C(OCCc3ccccc3)c3cc(NCc4ccccc4)ccc3OC2(C)C)cc1 (centres unmarked) [Compound 5-307] | 3.55
CC1(C)Oc2ccc(NCc3ccccc3)cc2C(OCCc2ccccc2)C1OCc1cccc(F)c1 (centres unmarked) [Compound 5-308] | 4.75
Cc1ccccc1COC1C(OCCc2ccccc2)c2cc(NCc3ccccc3)ccc2OC1(C)C (centres unmarked) [Compound 5-309] | 2.9
CC1(C)Oc2ccc(NCc3ccccc3)cc2C(OCCc2ccccc2)C1OCc1ccccc1Cl (centres unmarked) [Compound 5-310] | 1.1
CC1(C)Oc2ccc(NCc3ccccc3)cc2C(OCCc2ccccc2)C1OCc1ccccc1Cl (centres unmarked) [Compound 5-311] | 1.19
Cc1ccc(COC2C(OCCc3ccccc3)c3cc(NCc4ccccc4)ccc3OC2(C)C)cc1 (centres unmarked) [Compound 5-312] | 4.13
CC1(C)Oc2ccc(NCc3ccccc3)cc2C(OCCc2ccccc2)C1OCc1ccc(Br)cc1F (centres unmarked) [Compound 5-313] | 1.44
CC1(C)Oc2ccc(NCc3ccccc3)cc2C(OCCc2ccccc2)C1OCc1cc(C(F)F)cc(C(F)(F)F)c1 (centres unmarked) [Compound 5-315] | 3.43
C/C=C/COC1C(OCCc2ccccc2)c2cc(NCc3ccccc3)ccc2OC1(C)C (centres unmarked) [Compound 5-318] | 5.27
C#CCOC1C(OC)c2cc(NCc3ccc(F)cc3)ccc2OC1(C)C (centres unmarked) [Compound 5-464] | 3.81
CCOC1c2cc(NCc3ccc(F)cc3)ccc2OC(C)(C)C1OCc1ccccc1 (centres unmarked) [Compound 5-465] | 6.41
CCOC1c2cc(NCc3ccc(F)cc3)ccc2OC(C)(C)C1OCc1ccc(F)cc1 (centres unmarked) [Compound 5-466] | 1.2

SMILES | IC50 [µM]
CCOC1c2cc(NCc3ccc(F)cc3)ccc2OC(C)(C)C1OCc1ccc(C(C)(C)C)cc1 (centres unmarked) [Compound 5-467] | 3.6
CCOC1c2cc(NCc3ccc(F)cc3)ccc2OC(C)(C)C1OCc1cccc(F)c1 (centres unmarked) [Compound 5-468] | 4.27
CCOC1c2cc(NCc3ccc(F)cc3)ccc2OC(C)(C)C1OCc1ccccc1C (centres unmarked) [Compound 5-469] | 4.38
CCOC1c2cc(NCc3ccc(F)cc3)ccc2OC(C)(C)C1OCc1ccccc1Cl (centres unmarked) [Compound 5-470] | 4.15
CCOC1c2cc(NCc3ccc(F)cc3)ccc2OC(C)(C)C1OCc1cccc(Cl)c1 (centres unmarked) [Compound 5-471] | 4.85
CCOC1c2cc(NCc3ccc(F)cc3)ccc2OC(C)(C)C1OCc1ccc(C)cc1 (centres unmarked) [Compound 5-472] | 3.9
CCOC1c2cc(NCc3ccc(F)cc3)ccc2OC(C)(C)C1OCc1ccc(Br)cc1F (centres unmarked) [Compound 5-473] | 2.72
CCOC1c2cc(NCc3ccc(F)cc3)ccc2OC(C)(C)C1OCc1ccc2ccccc2c1 (centres unmarked) [Compound 5-474] | 3.45
CCOC1c2cc(NCc3ccc(F)cc3)ccc2OC(C)(C)C1OC (centres unmarked) [Compound 5-476] | 1.35
CCCCCOC1C(OCC)c2cc(NCc3ccc(F)cc3)ccc2OC1(C)C (centres unmarked) [Compound 5-477] | 3.63
C/C=C/COC1C(OCC)c2cc(NCc3ccc(F)cc3)ccc2OC1(C)C (centres unmarked) [Compound 5-478] | 6.21
C#CCOC1C(OCC)c2cc(NCc3ccc(F)cc3)ccc2OC1(C)C (centres unmarked) [Compound 5-480] | 5.55
Cc1ccccc1COC1C(OC(C)C)c2cc(NCc3ccc(F)cc3)ccc2OC1(C)C (centres unmarked) [Compound 5-485] | 2.66
CC(C)OC1c2cc(NCc3ccc(F)cc3)ccc2OC(C)(C)C1OCc1ccccc1Cl (centres unmarked) [Compound 5-486] | 0.91
CC(C)OC1c2cc(NCc3ccc(F)cc3)ccc2OC(C)(C)C1OCc1ccc2ccccc2c1 (centres unmarked) [Compound 5-490] | 2.24
C=CCOC1C(OC(C)C)c2cc(NCc3ccc(F)cc3)ccc2OC1(C)C (centres unmarked) [Compound 5-495] | 2.04
